Data published in patent publication US20060004019A1, “Steroid sparing agents and methods of using same” (priority 2004, published 2006).

Experiments:
rat cardiac allografts [1] = assay: Rat cardiac allograft study, Allograft Study 2 (Table 20); details: for percent of surviving grafts within a group / number of surviving grafts within each group: s.c., GG5/3 3 mg/kg, compounds 30 mg/kg;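 for all read-outs here: lewis x Brown Norway F1 hearts grafted abdominally into male Lewis rats, palpated daily, rejection meaning complete loss of heartbeat, day 0 being surgery day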
Method: Hearts from Lewis X Brown Norway F1 hybrids were transplanted to the abdominal great vessels of Lewis recipients using standard microvascular techniques. Both rat strains were male inbred rats, weighing 200-300 g. Food and water was available at all times except during surgical and dosing procedures. The day of transplantation was noted as day 0. […] Allograft survival in the rats was evaluated by daily palpation of the transplanted heart through the recipient's flank. Rejection was taken as the day of complete cessation of the graft's heart beat. Upon determination of rejection, the abdomen of the recipient was incised and retracted to confirm cessation of the heart beat in the transplanted heart. If cessation of the heart beat was not confirmed the abdomen was surgically closed, and the grafted heart was evaluated daily.
Cardiac allografts were established. Dosing of compounds began on day 0, prior to transplantation and continued through day +10. […] The vehicle control, 10% ethanol/corn oil, was administered s.c., every 12 hours, day 0 through day +10. The antibody, GG5/3 in 0.9% saline, was administered at 3 mg/kg, s.c., on day 0, +3, +7 and +10. All GG5/3 animals received twice daily s.c. injections of 0.9% saline, every 12 hours, throughout day 0 through day +10. The vehicle control, 0.9% saline, was administered daily, s.c., day 0 through day +10. All dosing solutions were formulated daily at a constant dose volume of 5 ml/kg. The site of injection was rotated at each injection through four possible sites: right and left fore flank, right and left rear flank. A total of 28 allografts, amongst 5 groups, were evaluated in the study. Group 1, consisted of 6 animals treated with the monoclonal antibody, GG5/3. […] Allograft survival was evaluated by daily palpation of the transplanted heart through the recipient's flank. Rejection was taken as the day of complete cessation of graft's heart beat. Upon determination of rejection, the abdomen of the recipient was incised to confirm cessation of the heart beat in the transplanted heart. If cessation of the graft's heart beat was not confirmed the abdomen was surgically closed, and the graft was evaluated daily.

rat cardiac allografts [2] = assay: Rat cardiac allograft study, Allograft Study 4 (Table 22); details: s.c., GG5/3 3 mg/kg, compounds 30 mg/kg;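 note: heterotopic abdominal heart transplants from Lewis × Brown Norway F1 donors into male Lewis rats, graft beating checked daily by flank palpation, rejection defined as complete stop of heartbeat, transplant day 0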
Method: Hearts from Lewis X Brown Norway F1 hybrids were transplanted to the abdominal great vessels of Lewis recipients using standard microvascular techniques. Both rat strains were male inbred rats, weighing 200-300 g. Food and water was available at all times except during surgical and dosing procedures. The day of transplantation was noted as day 0. Twelve hours following the last dose approximately 1 ml of blood was collected into lithium/heparin anti-coagulant tubes. If any graft was rejected prior to the last day of dosing, blood samples were taken 12 hours after dosing on the day that graft rejection was noted. All blood samples were centrifuged at 3000 rpm for 10 minutes and the plasma was harvested, frozen on dry ice and stored frozen at −20 C prior to analysis. Allograft survival in the rats was evaluated by daily palpation of the transplanted heart through the recipient's flank. Rejection was taken as the day of complete cessation of the graft's heart beat. Upon determination of rejection, the abdomen of the recipient was incised and retracted to confirm cessation of the heart beat in the transplanted heart. If cessation of the heart beat was not confirmed the abdomen was surgically closed, and the grafted heart was evaluated daily.
Cardiac allografts were established. Dosing of compounds began on day −2, 2 days prior to transplantation and continued through day +10. […] The vehicle control, 0.9% saline, pH adjusted to a value of 5, to match the dosing solution containing the N-[N-(3-pyridinesulfonyl)-L-3,3-dimethyl-4-thiaprolyl]-0-[1-methylpiperazin-4-ylcarbonyl]-L-tyrosine isopropyl ester, was administered via the same route, i.e. every 12 hours, day −2 through day +10. The antibody, GG5/3 in 0.9% saline, was administered at 3 mg/kg, s.c., on day 0, +3, +7 and +10. All GG5/3 animals received twice daily s.c. injections of 0.9% saline, every 12 hours, from day −2 through day +10. The vehicle control, 0.9% saline, was administered daily, s.c., day 0 through day +10. All dosing solutions were formulated daily at a constant dose volume of 5 ml/kg. The site of injection was rotated at each injection through four possible sites: right and left fore flank, right and left rear flank. A total of 21 allografts, amongst 5 groups, were evaluated in the study. […] Two animals within the 0.9% saline group received saline adjusted to a pH a value of 5. (The pH value of the N-[N-(3-pyridinesulfonyl)-L-3,3-dimethyl-4-thiaprolyl]-0-[1-methylpiperazin-4-ylcarbonyl]-L-tyrosine isopropyl ester dosing solution.) The remaining two animals received saline of pH 7. Group 2 consisted of 6 animals treated with the monoclonal antibody, GG5/3. […] Twelve hours following the last dose approximately 1 ml of blood was collected into lithium/heparin anti-coagulant tubes. If any graft was rejected prior to the last day of dosing, blood samples were taken 12 hours after dosing on the day that graft rejection was noted. All samples were centrifuged at 3000 rpm for 10 minutes and the plasma was harvested, frozen on dry ice and stored frozen at −20 C prior to dispatch for analysis. Allograft survival in the rats was evaluated by daily palpation of the transplanted heart through the recipient's flank. Rejection was taken as the day of complete cessation of graft's heart beat. Upon determination of rejection, the abdomen of the recipient was incised to confirm cessation of the heart beat in the transplanted heart. If cessation of the heart beat was not confirmed the abdomen was surgically closed, and the graft was evaluated daily.

CC(C)OC(=O)[C@H](Cc1ccc(OC(=O)N(C)C)cc1)NC(=O)[C@H]1N(S(=O)(=O)c2cccnc2)CSC1(C)C [listing 1 of 2 here]
percent of surviving grafts within a group (rat cardiac allografts [1]; Day 0): 100% | percent of surviving grafts within a group (rat cardiac allografts [1]; Day 1): 100% | percent of surviving grafts within a group (rat cardiac allografts [1]; Day 2): 100% | percent of surviving grafts within a group (rat cardiac allografts [1]; Day 3): 100% | percent of surviving grafts within a group (rat cardiac allografts [1]; Day 4): 100% | percent of surviving grafts within a group (rat cardiac allografts [1]; Day 5): 100% | percent of surviving grafts within a group (rat cardiac allografts [1]; Day 6): 100% | percent of surviving grafts within a group (rat cardiac allografts [1]; Day 7): 100% | percent of surviving grafts within a group (rat cardiac allografts [1]; Day 8): 66% | percent of surviving grafts within a group (rat cardiac allografts [1]; Day 9): 50% | percent of surviving grafts within a group (rat cardiac allografts [1]; Day 10): 50% | percent of surviving grafts within a group (rat cardiac allografts [1]; Day 11): 16% | percent of surviving grafts within a group (rat cardiac allografts [1]; Day 12): 0% | percent of surviving grafts within a group (rat cardiac allografts [1]; Day 13): 0% | percent of surviving grafts within a group (rat cardiac allografts [1]; Day 14): 0% | percent of surviving grafts within a group (rat cardiac allografts [1]; Day 15): 0% | percent of surviving grafts within a group (rat cardiac allografts [1]; Day 16): 0%

CC(C)OC(=O)[C@H](Cc1ccc(OC(=O)N(C)C)cc1)NC(=O)[C@H]1N(S(=O)(=O)c2cnn(C)c2)CSC1(C)C
percent of surviving grafts within a group (rat cardiac allografts [1]; Day 0): 100% | percent of surviving grafts within a group (rat cardiac allografts [1]; Day 1): 100% | percent of surviving grafts within a group (rat cardiac allografts [1]; Day 2): 100% | percent of surviving grafts within a group (rat cardiac allografts [1]; Day 3): 100% | percent of surviving grafts within a group (rat cardiac allografts [1]; Day 4): 100% | percent of surviving grafts within a group (rat cardiac allografts [1]; Day 5): 100% | percent of surviving grafts within a group (rat cardiac allografts [1]; Day 6): 100% | percent of surviving grafts within a group (rat cardiac allografts [1]; Day 7): 100% | percent of surviving grafts within a group (rat cardiac allografts [1]; Day 8): 100% | percent of surviving grafts within a group (rat cardiac allografts [1]; Day 9): 100% | percent of surviving grafts within a group (rat cardiac allografts [1]; Day 10): 83% | percent of surviving grafts within a group (rat cardiac allografts [1]; Day 11): 50% | percent of surviving grafts within a group (rat cardiac allografts [1]; Day 12): 50% | percent of surviving grafts within a group (rat cardiac allografts [1]; Day 13): 33% | percent of surviving grafts within a group (rat cardiac allografts [1]; Day 14): 16% | percent of surviving grafts within a group (rat cardiac allografts [1]; Day 15): 16% | percent of surviving grafts within a group (rat cardiac allografts [1]; Day 16): 0%

CC(C)OC(=O)[C@H](Cc1ccc(OC(=O)N(C)C)cc1)NC(=O)[C@H]1N(S(=O)(=O)c2cccnc2)CSC1(C)C [listing 2 of 2 here]
number of surviving grafts within each group (rat cardiac allografts [1]; Day 0): 6 | number of surviving grafts within each group (rat cardiac allografts [1]; Day 1): 6 | number of surviving grafts within each group (rat cardiac allografts [1]; Day 2): 6 | number of surviving grafts within each group (rat cardiac allografts [1]; Day 3): 6 | number of surviving grafts within each group (rat cardiac allografts [1]; Day 4): 6 | number of surviving grafts within each group (rat cardiac allografts [1]; Day 5): 6 | number of surviving grafts within each group (rat cardiac allografts [1]; Day 6): 6 | number of surviving grafts within each group (rat cardiac allografts [1]; Day 7): 6 | number of surviving grafts within each group (rat cardiac allografts [1]; Day 8): 4 | number of surviving grafts within each group (rat cardiac allografts [1]; Day 9): 2 | number of surviving grafts within each group (rat cardiac allografts [1]; Day 10): 2 | number of surviving grafts within each group (rat cardiac allografts [1]; Day 11): 1 | number of surviving grafts within each group (rat cardiac allografts [1]; Day 12): 0 | number of surviving grafts within each group (rat cardiac allografts [1]; Day 13): 0 | number of surviving grafts within each group (rat cardiac allografts [1]; Day 14): 0 | number of surviving grafts within each group (rat cardiac allografts [1]; Day 15): 0 | number of surviving grafts within each group (rat cardiac allografts [1]; Day 16): 0

CC(C)OC(=O)[C@H](Cc1ccc(OC(=O)N2CCN(C)CC2)cc1)NC(=O)[C@H]1N(S(=O)(=O)c2cccnc2)CSC1(C)C
percent of surviving grafts within a group (rat cardiac allografts [2]; day 0): 100% | percent of surviving grafts within a group (rat cardiac allografts [2]; day 1): 100% | percent of surviving grafts within a group (rat cardiac allografts [2]; day 2): 100% | percent of surviving grafts within a group (rat cardiac allografts [2]; day 3): 100% | percent of surviving grafts within a group (rat cardiac allografts [2]; day 4): 100% | percent of surviving grafts within a group (rat cardiac allografts [2]; day 5): 100% | percent of surviving grafts within a group (rat cardiac allografts [2]; day 6): 100% | percent of surviving grafts within a group (rat cardiac allografts [2]; day 7): 100% | percent of surviving grafts within a group (rat cardiac allografts [2]; day 8): 100% | percent of surviving grafts within a group (rat cardiac allografts [2]; day 9): 83% | percent of surviving grafts within a group (rat cardiac allografts [2]; day 10): 66% | percent of surviving grafts within a group (rat cardiac allografts [2]; day 11): 66% | percent of surviving grafts within a group (rat cardiac allografts [2]; day 12): 66% | percent of surviving grafts within a group (rat cardiac allografts [2]; day 13): 66% | percent of surviving grafts within a group (rat cardiac allografts [2]; day 14): 66% | percent of surviving grafts within a group (rat cardiac allografts [2]; day 15): 66% | percent of surviving grafts within a group (rat cardiac allografts [2]; day 16): 50% | percent of surviving grafts within a group (rat cardiac allografts [2]; day 17): 50% | percent of surviving grafts within a group (rat cardiac allografts [2]; day 18): 50% | percent of surviving grafts within a group (rat cardiac allografts [2]; day 19): 50% | number of surviving grafts (rat cardiac allografts [2]; day 20): 2 | percent of surviving grafts within a group (rat cardiac allografts [2]; day 20): 33% | number of surviving grafts (rat cardiac allografts [2]; day 21): 2 | percent of surviving grafts within a group (rat cardiac allografts [2]; day 21): 33% | number of surviving grafts (rat cardiac allografts [2]; day 22): 2 | percent of surviving grafts within a group (rat cardiac allografts [2]; day 22): 33% | number of surviving grafts (rat cardiac allografts [2]; day 23): 2 | percent of surviving grafts within a group (rat cardiac allografts [2]; day 23): 33% | number of surviving grafts (rat cardiac allografts [2]; day 24): 2 | percent of surviving grafts within a group (rat cardiac allografts [2]; day 24): 33% | number of surviving grafts (rat cardiac allografts [2]; day 25): 2 | percent of surviving grafts within a group (rat cardiac allografts [2]; day 25): 33% | number of surviving grafts (rat cardiac allografts [2]; day 26): 2 | percent of surviving grafts within a group (rat cardiac allografts [2]; day 26): 33% | number of surviving grafts (rat cardiac allografts [2]; day 27): 2 | percent of surviving grafts within a group (rat cardiac allografts [2]; day 27): 33% | number of surviving grafts (rat cardiac allografts [2]; day 28): 2 | percent of surviving grafts within a group (rat cardiac allografts [2]; day 28): 33% | number of surviving grafts (rat cardiac allografts [2]; day 29): 2 | percent of surviving grafts within a group (rat cardiac allografts [2]; day 29): 33% | number of surviving grafts (rat cardiac allografts [2]; day 30): 2 | percent of surviving grafts within a group (rat cardiac allografts [2]; day 30): 33% | number of surviving grafts (rat cardiac allografts [2]; day 31): 1 | percent of surviving grafts within a group (rat cardiac allografts [2]; day 31): 16% | number of surviving grafts (rat cardiac allografts [2]; day 32): 1 | percent of surviving grafts within a group (rat cardiac allografts [2]; day 32): 16% | number of surviving grafts (rat cardiac allografts [2]; day 33): 1 | percent of surviving grafts within a group (rat cardiac allografts [2]; day 33): 16% | number of surviving grafts (rat cardiac allografts [2]; day 34): 1 | percent of surviving grafts within a group (rat cardiac allografts [2]; day 34): 16% | number of surviving grafts (rat cardiac allografts [2]; day 35): 1 | percent of surviving grafts within a group (rat cardiac allografts [2]; day 35): 16% | number of surviving grafts (rat cardiac allografts [2]; day 36): 1 | percent of surviving grafts within a group (rat cardiac allografts [2]; day 36): 16% | number of surviving grafts (rat cardiac allografts [2]; day 37): 1 | percent of surviving grafts within a group (rat cardiac allografts [2]; day 37): 16% | number of surviving grafts (rat cardiac allografts [2]; day 38): 1 | percent of surviving grafts within a group (rat cardiac allografts [2]; day 38): 16% | number of surviving grafts (rat cardiac allografts [2]; day 39): 1 | percent of surviving grafts within a group (rat cardiac allografts [2]; day 39): 16% | number of surviving grafts (rat cardiac allografts [2]; day 40): 1 | percent of surviving grafts within a group (rat cardiac allografts [2]; day 40): 16% | number of surviving grafts (rat cardiac allografts [2]; day 41): 1 | percent of surviving grafts within a group (rat cardiac allografts [2]; day 41): 16% | number of surviving grafts (rat cardiac allografts [2]; day 42): 0 | percent of surviving grafts within a group (rat cardiac allografts [2]; day 42): 0%

CC(C)OC(=O)[C@H](Cc1ccc(OC(=O)N(C)C)cc1)NC(=O)[C@H]1N(S(=O)(=O)c2cccnc2)CSC1(C)C [Example 173]
day by which all grafts rejected (rat cardiac allografts [1]; 30 mg/kg s.c. every 12 h, day 0 through day +10): ≤ 12 days | graft survival (in words) (rat cardiac allografts [1]; compounds 30 mg/kg s.c. every 12 h, GG5/3 3 mg/kg s.c. day 0, +3, +7, +10): prolonged graft survival for a short period
